# Measured values from ChEMBL document CHEMBL5584296, “Discovery of Novel Pyrimidine-Based Derivatives as Nav1.2 Inhibitors with Efficacy in Mouse Models of Epilepsy” (J Med Chem, 2024).
# Target: T1, Sodium channel protein type 2 subunit alpha (Homo sapiens, UniProt Q99250)
# Assay: Inhibition of human Nav1.2 expressed in HEK293 cells assessed as effect on steady state inactivation by measuring half activation potential at 20 uM (reference value: -59 mV)
# Assay type: cell-based
# Details: not given
# Target sequence in this assay (Q99250 whole entry, looked up): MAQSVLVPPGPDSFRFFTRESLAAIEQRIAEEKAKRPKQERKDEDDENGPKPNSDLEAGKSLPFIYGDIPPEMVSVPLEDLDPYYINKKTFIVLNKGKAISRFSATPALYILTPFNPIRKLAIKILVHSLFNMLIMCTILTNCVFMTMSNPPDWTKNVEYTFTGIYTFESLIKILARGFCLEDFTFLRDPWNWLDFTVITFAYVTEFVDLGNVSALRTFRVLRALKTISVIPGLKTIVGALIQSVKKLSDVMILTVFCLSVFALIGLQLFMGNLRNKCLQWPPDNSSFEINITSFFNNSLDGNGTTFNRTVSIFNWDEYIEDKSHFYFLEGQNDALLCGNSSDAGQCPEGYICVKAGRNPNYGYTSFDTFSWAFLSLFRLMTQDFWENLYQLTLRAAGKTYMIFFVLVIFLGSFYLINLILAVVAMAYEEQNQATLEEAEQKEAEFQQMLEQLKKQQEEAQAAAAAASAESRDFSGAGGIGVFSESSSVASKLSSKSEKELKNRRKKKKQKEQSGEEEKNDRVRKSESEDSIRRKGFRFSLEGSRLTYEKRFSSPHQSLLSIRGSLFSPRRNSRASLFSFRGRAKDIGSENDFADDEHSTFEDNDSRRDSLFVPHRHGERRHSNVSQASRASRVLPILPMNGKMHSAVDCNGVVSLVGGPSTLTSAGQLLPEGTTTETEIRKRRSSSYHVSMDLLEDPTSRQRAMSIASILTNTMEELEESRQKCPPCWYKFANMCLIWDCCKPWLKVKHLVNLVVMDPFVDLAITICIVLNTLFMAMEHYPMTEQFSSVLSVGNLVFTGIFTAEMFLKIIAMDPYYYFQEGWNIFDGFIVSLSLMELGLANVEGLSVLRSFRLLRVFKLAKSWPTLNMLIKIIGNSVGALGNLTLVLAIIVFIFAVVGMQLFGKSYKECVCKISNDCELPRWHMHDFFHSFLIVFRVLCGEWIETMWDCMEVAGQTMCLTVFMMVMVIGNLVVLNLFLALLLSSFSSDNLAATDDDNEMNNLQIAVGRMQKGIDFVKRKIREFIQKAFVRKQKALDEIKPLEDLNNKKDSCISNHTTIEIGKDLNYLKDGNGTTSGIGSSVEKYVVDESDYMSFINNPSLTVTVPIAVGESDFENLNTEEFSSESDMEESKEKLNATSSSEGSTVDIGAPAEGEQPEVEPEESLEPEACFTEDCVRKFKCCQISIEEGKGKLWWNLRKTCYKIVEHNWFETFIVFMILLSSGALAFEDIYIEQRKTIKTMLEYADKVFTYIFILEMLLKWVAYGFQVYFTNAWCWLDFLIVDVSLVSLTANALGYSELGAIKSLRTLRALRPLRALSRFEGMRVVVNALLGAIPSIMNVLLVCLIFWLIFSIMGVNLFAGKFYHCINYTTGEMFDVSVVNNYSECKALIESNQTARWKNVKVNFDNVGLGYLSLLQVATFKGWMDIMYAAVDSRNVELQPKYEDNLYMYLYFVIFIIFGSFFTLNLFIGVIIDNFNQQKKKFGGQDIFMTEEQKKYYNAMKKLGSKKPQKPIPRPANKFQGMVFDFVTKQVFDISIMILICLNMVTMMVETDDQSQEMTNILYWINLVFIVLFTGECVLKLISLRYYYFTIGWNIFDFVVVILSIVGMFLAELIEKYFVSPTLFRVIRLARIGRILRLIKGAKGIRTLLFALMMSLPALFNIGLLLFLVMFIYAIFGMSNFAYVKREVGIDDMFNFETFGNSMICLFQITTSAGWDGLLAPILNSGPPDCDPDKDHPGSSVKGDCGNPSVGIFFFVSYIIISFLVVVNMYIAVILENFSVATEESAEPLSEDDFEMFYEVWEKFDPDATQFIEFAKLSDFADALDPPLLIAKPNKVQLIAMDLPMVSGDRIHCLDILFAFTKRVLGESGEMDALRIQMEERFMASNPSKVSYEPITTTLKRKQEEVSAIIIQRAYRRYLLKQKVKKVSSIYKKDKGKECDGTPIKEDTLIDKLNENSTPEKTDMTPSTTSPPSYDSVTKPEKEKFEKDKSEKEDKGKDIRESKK
row,V1/2 [mV],Compound
1,-70,COc1cccc(-c2cc(N3CC4CC(C3)c3ccccc34)nc(N)n2)c1

# Test system: Mus musculus
# Assay: Antiepileptic activity in 6 Hz(32 mA)-induced seizure male C57BL mouse model administered intraperitoneally for 30 mins by epilepsy test
# Assay type: functional
# Details: 0.5 h, route ip
row,Compound,ED50 [mg/kg]
1,COc1cccc(-c2cc(N3CC4CC(C3)c3ccccc34)nc(N)n2)c1,38

# Target: T1, Sodium channel protein type 2 subunit alpha
# Assay: Inhibition of human Nav1.2 expressed in HEK293 cells at 10 uM measured after 5 mins by whole cell voltage clamp electrophysiological analysis relative to control
# Assay type: cell-based
# Details: not given
# Target sequence in this assay (Q99250 whole entry, looked up): as above
row,inhibition [%],Compound
1,92,CCCc1ccc(S(=O)(=O)Nc2nc(-c3cccc(OC)c3)cc(N3CCCc4ccccc4C3)n2)cc1
2,99,COc1cccc(-c2cc(N3CCc4cc(OC)c(OC)cc4C3)nc(N)n2)c1
3,76,COc1cccc(-c2cc(NCc3ccc(OC)c(OC)c3)nc(N)n2)c1

# Target: T2, Sodium channel protein type 5 subunit alpha (Homo sapiens, UniProt Q14524)
# Assay: Inhibition of human Nav1.5 expressed in CHL cells assessed as test to control ratio at 0.1 uM by whole cell voltage clamp electrophysiological analysis
# Assay type: cell-based
# Details: not given
# T2 sequence (Q14524 whole entry): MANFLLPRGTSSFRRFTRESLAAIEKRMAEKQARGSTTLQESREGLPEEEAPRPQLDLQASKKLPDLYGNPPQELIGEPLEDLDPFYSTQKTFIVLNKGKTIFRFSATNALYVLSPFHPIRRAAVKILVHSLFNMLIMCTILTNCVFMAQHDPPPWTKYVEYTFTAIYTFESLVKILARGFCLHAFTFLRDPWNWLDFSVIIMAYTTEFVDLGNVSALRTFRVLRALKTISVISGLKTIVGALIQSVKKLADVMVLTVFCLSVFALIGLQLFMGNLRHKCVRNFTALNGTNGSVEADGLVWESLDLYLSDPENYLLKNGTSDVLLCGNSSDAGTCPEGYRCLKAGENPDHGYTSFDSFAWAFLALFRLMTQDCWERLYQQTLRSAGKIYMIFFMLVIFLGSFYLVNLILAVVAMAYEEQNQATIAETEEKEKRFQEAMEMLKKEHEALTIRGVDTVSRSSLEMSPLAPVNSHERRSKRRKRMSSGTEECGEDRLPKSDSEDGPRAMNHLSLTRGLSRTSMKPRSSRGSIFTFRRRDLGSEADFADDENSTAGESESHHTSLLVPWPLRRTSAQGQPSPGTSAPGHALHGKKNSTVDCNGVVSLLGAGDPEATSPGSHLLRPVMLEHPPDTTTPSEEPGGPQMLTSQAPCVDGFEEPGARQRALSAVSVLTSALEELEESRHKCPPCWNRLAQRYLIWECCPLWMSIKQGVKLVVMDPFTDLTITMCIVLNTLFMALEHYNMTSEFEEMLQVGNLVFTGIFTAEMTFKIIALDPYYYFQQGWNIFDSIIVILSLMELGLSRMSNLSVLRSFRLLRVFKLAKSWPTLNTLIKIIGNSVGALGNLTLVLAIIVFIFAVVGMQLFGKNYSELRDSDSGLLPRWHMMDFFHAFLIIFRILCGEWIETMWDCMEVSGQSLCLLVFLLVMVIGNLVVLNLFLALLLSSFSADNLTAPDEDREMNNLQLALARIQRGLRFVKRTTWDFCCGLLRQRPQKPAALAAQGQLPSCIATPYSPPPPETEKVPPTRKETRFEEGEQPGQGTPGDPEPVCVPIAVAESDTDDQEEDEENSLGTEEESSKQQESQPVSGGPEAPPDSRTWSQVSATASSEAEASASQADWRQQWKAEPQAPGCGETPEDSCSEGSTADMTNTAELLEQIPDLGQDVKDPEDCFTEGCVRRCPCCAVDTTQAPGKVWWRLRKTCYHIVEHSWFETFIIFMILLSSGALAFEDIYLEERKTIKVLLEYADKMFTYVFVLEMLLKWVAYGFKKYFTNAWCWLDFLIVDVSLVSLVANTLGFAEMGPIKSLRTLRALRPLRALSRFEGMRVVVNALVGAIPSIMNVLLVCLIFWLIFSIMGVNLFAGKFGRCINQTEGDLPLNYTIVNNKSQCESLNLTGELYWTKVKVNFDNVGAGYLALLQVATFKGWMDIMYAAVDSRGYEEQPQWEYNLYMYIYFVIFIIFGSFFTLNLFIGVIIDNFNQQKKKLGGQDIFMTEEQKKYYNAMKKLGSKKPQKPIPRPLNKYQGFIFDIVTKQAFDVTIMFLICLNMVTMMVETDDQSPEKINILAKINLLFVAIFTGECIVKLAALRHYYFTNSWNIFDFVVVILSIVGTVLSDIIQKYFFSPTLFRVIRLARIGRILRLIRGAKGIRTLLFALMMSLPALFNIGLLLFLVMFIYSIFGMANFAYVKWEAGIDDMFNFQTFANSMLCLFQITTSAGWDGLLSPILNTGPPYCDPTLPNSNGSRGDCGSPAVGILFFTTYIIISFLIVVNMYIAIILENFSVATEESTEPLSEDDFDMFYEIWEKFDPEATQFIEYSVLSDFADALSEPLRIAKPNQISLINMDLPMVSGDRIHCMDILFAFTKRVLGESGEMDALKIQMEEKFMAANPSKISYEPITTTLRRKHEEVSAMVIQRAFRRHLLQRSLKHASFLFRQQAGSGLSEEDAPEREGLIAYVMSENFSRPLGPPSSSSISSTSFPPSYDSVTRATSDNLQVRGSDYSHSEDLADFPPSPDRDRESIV
row,Compound,T/C
1,COc1cccc(-c2cc(N3CC4CC(C3)c3ccccc34)nc(N)n2)c1,0.89

# Test system: Mus musculus
# Assay: Antiepileptic activity in 6 Hz(32 mA)-induced seizure male C57BL mouse model assessed as protection against seizure at 30 mg/kg, ip administered for 30 mins by epilepsy test
# Assay type: functional
# Details: 0.5 h
row,Compound,Activity [%]
1,COc1cccc(-c2cc(N3CC4CC(C3)c3ccccc34)nc(N)n2)c1,38

# Target: T2, Sodium channel protein type 5 subunit alpha
# Assay: Inhibition of human Nav1.5 expressed in CHL cells assessed as test to control ratio at 1 uM by whole cell voltage clamp electrophysiological analysis
# Assay type: cell-based
# Details: not given
row,Compound,T/C
1,COc1cccc(-c2cc(N3CC4CC(C3)c3ccccc34)nc(N)n2)c1,0.37

# Target: T1, Sodium channel protein type 2 subunit alpha
# Assay: Inhibition of human Nav1.2 expressed in HEK293 cells assessed as test to control ratio at 1 uM measured after 5 mins by whole cell voltage clamp electrophysiological analysis
# Assay type: cell-based
# Details: not given
# Target sequence in this assay (Q99250 whole entry, looked up): as the sequence (Q99250 whole entry, looked up) above
row,Compound,T/C
1,COc1cccc(-c2cc(N3CCc4nc(Cl)ccc4C3)nc(N)n2)c1,0.71
2,Nc1nc(-c2cccn2C2CCCCO2)cc(N2CCCc3ccccc3C2)n1 (stereo unspecified),0.77
3,Nc1nc(-c2ccc(OC3CCCCO3)cc2)cc(N2CCCc3ccccc3C2)n1 (stereo unspecified),0.76
4,CCCc1ccc(S(=O)(=O)Nc2nc(-c3cccc(OC)c3)cc(N3CCCc4ccccc4C3)n2)cc1,0.12
5,COc1cccc(-c2cc(N3CC4CC(C3)c3ccccc34)nc(N)n2)c1,0.4
6,COc1cccc(-c2cc(NCc3ccc(OC)c(OC)c3)nc(N)n2)c1,0.4

# The next lines start with the values.
row,T/C,Compound
1,0.12,COc1cccc(-c2cc(N3CCC(C)c4ccccc4C3)nc(N)n2)c1 (stereo unspecified)
2,0.43,COc1cccc(-c2cc(N3CCCc4ccc(C)cc4C3)nc(OC)n2)c1
3,0.03,COc1cccc(-c2cc(N3CCCc4cc(F)ccc4C3)nc(N)n2)c1
4,0.11,COc1cccc(-c2cc(N3CCCc4ccc(OCc5ccccc5)cc4C3)nc(N)n2)c1
5,0.35,COc1cccc(-c2cc(N3CCc4cc(OC)c(OC)cc4C3)nc(N)n2)c1

# Test system: not listed separately
# Assay: Neurotoxicity in male ICR mouse assessed as motor impairment at 300 mg/kg, ip administered for 30 mins by rotarod test relative to control
# Assay type: toxicity, organism-based
# Details: in vivo, 0.5 h
row,Compound,Activity [%]
1,COc1cccc(-c2cc(N3CC4CC(C3)c3ccccc34)nc(N)n2)c1,88

# Test system: not listed separately
# Assay: Neurotoxicity in male ICR mouse administered intraperitoneally for 30 mins
# Assay type: toxicity
# Details: in vivo, route ip
row,Compound,TD50 at 0.5 h [mg/kg]
1,COc1cccc(-c2cc(N3CC4CC(C3)c3ccccc34)nc(N)n2)c1,232

# Test system: Mus musculus
# Assay: Antiepileptic activity in MES-induced seizure male ICR mouse model assessed as protection against tonic hind limb extension at 10 mg/kg, ip measured after 30 mins relative to control
# Assay type: functional
# Details: 0.5 h
row,Compound,Activity [%]
1,COc1cccc(-c2cc(N3CC4CC(C3)c3ccccc34)nc(N)n2)c1,38

# Target: Sodium channel protein type 1 subunit alpha (Homo sapiens) (UniProt P35498)
# Assay: Inhibition of human Nav1.1 expressed in HEK293 cells assessed as test to control ratio at 0.1 uM by whole cell voltage clamp electrophysiological analysis
# Assay type: cell-based
# Details: not given
row,T/C,Compound
1,0.93,COc1cccc(-c2cc(N3CC4CC(C3)c3ccccc34)nc(N)n2)c1

# Target: Sodium channel protein type 8 subunit alpha (Homo sapiens) (UniProt Q9UQD0)
# Assay: Inhibition of human Nav1.6 expressed in CHO cells assessed as test to control ratio at 1 uM by whole cell voltage clamp electrophysiological analysis
# Assay type: cell-based
# Details: not given
row,T/C,Compound
1,0.1,COc1cccc(-c2cc(N3CC4CC(C3)c3ccccc34)nc(N)n2)c1

# Target: T1, Sodium channel protein type 2 subunit alpha
# Assay: Inhibition of human Nav1.2 expressed in HEK293 cells assessed as test to control ratio at 10 uM measured after 5 mins by whole cell voltage clamp electrophysiological analysis
# Assay type: cell-based
# Details: not given
# Target sequence in this assay (Q99250 whole entry, looked up): as above
row,Compound,T/C
1,COc1cccc(-c2cc(N3CCc4nc(Cl)ccc4C3)nc(N)n2)c1,0.18
2,Nc1nc(-c2cccn2C2CCCCO2)cc(N2CCCc3ccccc3C2)n1 (stereo unspecified),0.19
3,Nc1nc(-c2ccc(OC3CCCCO3)cc2)cc(N2CCCc3ccccc3C2)n1 (stereo unspecified),0.14
4,CCCc1ccc(S(=O)(=O)Nc2nc(-c3cccc(OC)c3)cc(N3CCCc4ccccc4C3)n2)cc1,0.08
5,COc1cccc(-c2cc(N3CC4CC(C3)c3ccccc34)nc(N)n2)c1,0.02
6,COc1cccc(-c2cc(NCc3ccc(OC)c(OC)c3)nc(N)n2)c1,0.24

# The next lines start with the values.
row,T/C,Compound
1,0.11,COc1cccc(-c2cc(N3CCC(C)c4ccccc4C3)nc(N)n2)c1 (stereo unspecified)
2,0.11,COc1cccc(-c2cc(N3CCCc4ccc(C)cc4C3)nc(OC)n2)c1
3,0.04,COc1cccc(-c2cc(N3CCCc4cc(F)ccc4C3)nc(N)n2)c1
4,0.02,COc1cccc(-c2cc(N3CCCc4ccc(OCc5ccccc5)cc4C3)nc(N)n2)c1
5,0.01,COc1cccc(-c2cc(N3CCc4cc(OC)c(OC)cc4C3)nc(N)n2)c1

# Target: T1, Sodium channel protein type 2 subunit alpha
# Assay: Inhibition of human Nav1.2 expressed in HEK293 cells at -120 mv holding potential measured after 5 mins by whole cell voltage clamp electrophysiological analysis
# Assay type: cell-based
# Details: not given
# Target sequence in this assay (Q99250 whole entry): as the sequence (Q99250 whole entry, looked up) above
row,IC50 [µM],Compound
1,21.5,COc1cccc(-c2cc(N3CC4CC(C3)c3ccccc34)nc(N)n2)c1

# Test system: Mus musculus
# Assay: Antiepileptic activity in MES-induced seizure male ICR mouse model assessed as protection against tonic hind limb extension at 30 mg/kg, ip measured after 30 mins relative to control
# Assay type: functional
# Details: 0.5 h
row,Compound,Activity [%]
1,COc1cccc(-c2cc(N3CC4CC(C3)c3ccccc34)nc(N)n2)c1,75

# Target: T1, Sodium channel protein type 2 subunit alpha
# Assay: Inhibition of human Nav1.2 expressed in HEK293 cells at -40 mv holding potential measured after 5 mins by whole cell voltage clamp electrophysiological analysis
# Assay type: cell-based
# Details: not given
# Target sequence in this assay (Q99250 whole entry): as the sequence (Q99250 whole entry, looked up) above
row,IC50 [µM],Compound
1,0.635,COc1cccc(-c2cc(N3CC4CC(C3)c3ccccc34)nc(N)n2)c1

# Test system: Mus musculus
# Assay: Antiepileptic activity in MES-induced seizure male ICR mouse model assessed as protection against tonic hind limb extension administered intraperitoneally for 30 mins
# Assay type: functional
# Details: 0.5 h, route ip
row,Compound,ED50 [mg/kg]
1,COc1cccc(-c2cc(N3CC4CC(C3)c3ccccc34)nc(N)n2)c1,15.8

# Test system: Mus musculus
# Assay: Antiepileptic activity in MES-induced seizure male ICR mouse model assessed as protection against tonic hind limb extension at 20 mg/kg, ip measured after 30 mins relative to control
# Assay type: functional
# Details: 0.5 h
row,Compound,Activity [%]
1,COc1cccc(-c2cc(N3CC4CC(C3)c3ccccc34)nc(N)n2)c1,50

# Target: Sodium channel protein type 8 subunit alpha (Homo sapiens) (UniProt Q9UQD0)
# Assay: Inhibition of human Nav1.6 expressed in CHO cells assessed as test to control ratio at 0.1 uM by whole cell voltage clamp electrophysiological analysis
# Assay type: cell-based
# Details: not given
row,T/C,Compound
1,0.51,COc1cccc(-c2cc(N3CC4CC(C3)c3ccccc34)nc(N)n2)c1

# Test system: Mus musculus
# Assay: Antiepileptic activity in 6 Hz(32 mA)-induced seizure male C57BL mouse model assessed as protection against seizure at 10 mg/kg, ip administered for 30 mins by epilepsy test
# Assay type: functional
# Details: 0.5 h
row,Compound,Activity [%]
1,COc1cccc(-c2cc(N3CC4CC(C3)c3ccccc34)nc(N)n2)c1,13

# Test system: Mus musculus
# Assay: Antiepileptic activity in 6 Hz(32 mA)-induced seizure male C57BL mouse model assessed as protection against seizure at 50 mg/kg, ip administered for 30 mins by epilepsy test
# Assay type: functional
# Details: 0.5 h
row,Compound,Activity [%]
1,COc1cccc(-c2cc(N3CC4CC(C3)c3ccccc34)nc(N)n2)c1,63

# Target: Sodium channel protein type 1 subunit alpha (Homo sapiens) (UniProt P35498)
# Assay: Inhibition of human Nav1.1 expressed in HEK293 cells assessed as test to control ratio at 1 uM by whole cell voltage clamp electrophysiological analysis
# Assay type: cell-based
# Details: not given
row,T/C,Compound
1,0.33,COc1cccc(-c2cc(N3CC4CC(C3)c3ccccc34)nc(N)n2)c1

# Test system: not listed separately
# Assay: Neurotoxicity in male ICR mouse assessed as motor impairment at 250 mg/kg, ip administered for 30 mins by rotarod test relative to control
# Assay type: toxicity, organism-based
# Details: in vivo, 0.5 h
row,Compound,Activity [%]
1,COc1cccc(-c2cc(N3CC4CC(C3)c3ccccc34)nc(N)n2)c1,38

# Target: T1, Sodium channel protein type 2 subunit alpha
# Assay: Inhibition of human Nav1.2 expressed in HEK293 cells assessed as test to control ratio at 0.1 uM measured after 5 mins by whole cell voltage clamp electrophysiological analysis
# Assay type: cell-based
# Details: not given
# Target sequence in this assay (Q99250 whole entry, looked up): as above
row,Compound,T/C
1,COc1cccc(-c2cc(N3CCc4nc(Cl)ccc4C3)nc(N)n2)c1,0.89
2,CCCc1ccc(S(=O)(=O)Nc2nc(-c3cccc(OC)c3)cc(N3CCCc4ccccc4C3)n2)cc1,0.86
3,COc1cccc(-c2cc(N3CC4CC(C3)c3ccccc34)nc(N)n2)c1,0.87
4,COc1cccc(-c2cc(NCc3ccc(OC)c(OC)c3)nc(N)n2)c1,0.7

# Results, then the compound that gave them:
row,T/C,Compound
1,0.95,COc1cccc(-c2cc(N3CCC(C)c4ccccc4C3)nc(N)n2)c1 (stereo unspecified)
2,0.88,COc1cccc(-c2cc(N3CCCc4ccc(C)cc4C3)nc(OC)n2)c1
3,0.39,COc1cccc(-c2cc(N3CCCc4cc(F)ccc4C3)nc(N)n2)c1
4,0.77,COc1cccc(-c2cc(N3CCCc4ccc(OCc5ccccc5)cc4C3)nc(N)n2)c1
5,0.67,COc1cccc(-c2cc(N3CCc4cc(OC)c(OC)cc4C3)nc(N)n2)c1

# Target: T1, Sodium channel protein type 2 subunit alpha
# Assay: Inhibition of human Nav1.2 expressed in HEK293 cells assessed as effect on steady state activation by measuring half activation potential at 20 uM (reference value: -37 mV)
# Assay type: cell-based
# Details: not given
# Target sequence in this assay (Q99250 whole entry, looked up): as above
row,V1/2 [mV],Compound
1,-32,COc1cccc(-c2cc(N3CC4CC(C3)c3ccccc34)nc(N)n2)c1

# Test system: not listed separately
# Assay: Neurotoxicity in male ICR mouse assessed as motor impairment at 150 mg/kg, ip administered for 30 mins by rotarod test relative to control
# Assay type: toxicity, organism-based
# Details: in vivo, 0.5 h
row,Compound,Activity [%]
1,COc1cccc(-c2cc(N3CC4CC(C3)c3ccccc34)nc(N)n2)c1,13
